Source: patent publication US20260000782A1, “ITGB2-MEDIATED DRUG DELIVERY SYSTEM” (TWINPIG BIOLAB INC., priority 2022, published 2026)

Experiments:
[1] = tested on: M2 macrophages; experiment: CCK-8 cell viability in M2 macrophages (control, ITGB2 knockdown, ITGB2 antibody pretreatment); type: cell-based, human; details: Melittin-dKLA 1 μM, 24 hours
Method: As a cell model used to confirm whether apoptosis was induced through ITGB2 in M2 macrophages, a cell model in which the expression of ITGB2 was suppressed in M2 macrophages was fabricated using Crispr/cas9. Specifically, cells differentiated into M2 macrophages were cultured in an Opti-MEM medium. The Crispr/cas9 was mixed with Cas9 protein V2 (Thermo Fisher scientific) and gRNA (Genscript; ITGB2; Table 7) of a CRISPRMAX™ Reagent kit (Thermo Fisher scientific) and a Cas9 Plus™ Reagent (Thermo Fisher scientific), and a CRISPRMAX™ Reagent was diluted in the Opti-MEM medium, mixed together, and reacted for 5 to 10 minutes, and then added to cells differentiated into M2 macrophages and cultured at 37° C. for 2 to 3 days. Thereafter, the mRNA expression level of ITGB2 was confirmed.
To confirm whether Melittin-dKLA bound to ITGB2 to induce apoptosis in M2 macrophages, Melittin-dKLA (1 μM) was treated for 24 hours to M2 macrophages in which ITGB2 expression was suppressed by Crispr/cas9 fabricated in Example 7-1 above, and cell viability was analyzed using a CCK-8 assay. Specifically, Melittin-dKLA (1 μM) reacted with ITGB2 knockdown macrophages fabricated in Example 7-1 above for 1 hour. After the reaction, the medium was replaced and cultured at 37° C. for 24 hours. […] Absorbance was measured at 450 nm using a microplate reader (Molecular Devices). […]

[2] = tested on: M2 macrophages; experiment: Flow cytometry of FITC-conjugated melittin on M0, M1 and M2 macrophages; type: cell-based, human; details: 50 nM FITC-conjugated melittin, 1 hour; THP-1 derived M0, M1, M2 macrophages
Method: To confirm whether the melittin fabricated in Example 1 specifically bound to M2 tumor-associated macrophages (M2 TAMs), a human monocyte cell line THP-1 was differentiated into M0, M1, and M2 macrophages, and treated with FITC-conjugated melittin, and then confirmed by flow cytometry. Specifically, THP-1 cells were treated with 100 nM phorbol 12-myristate 13-acetate (PMA) at 37° C. for 24 hours (M0 macrophages), and the differentiated M0 macrophages were incubated with 100 nM LPS and 20 ng/ml IFN-γ at 37° C. for 72 hours to be differentiated into M1 macrophages (M1), and incubated with 20 ng/ml IL-4 and IL-13 at 37° C. for 72 hours to be differentiated into M2 macrophages (M2). The differentiated cells were treated with 50 nM FITC-conjugated melittin for 1 hour, detected with BD FACS CantoII instruments (BD biosciences, San Jose, CA, USA), and analyzed with FlowJo software (BD biosciences).

Q: Which cell viability ([1]; M2 macrophages in which ITGB2 was knocked down (Crispr/cas9)) does the source give for “Peptide with linker and drug dKLA attached to melittin, SEQ ID NO: 5, GIGAVLKVLTTGLPALISWIKRKRQQ-GGGGS-d[KLAKLAKKLAKLAK] [Melittin-dKLA]” here?
A: decrease in cell viability by Melittin-dKLA was suppressed

Q: What about the cell viability ([1]; control M2 macrophages) of the same compound?
A: significantly reduced

Q: How did the FITC-positive cells [2] turn out when CC[C@H](C)[C@H](NC(=O)CN)C(=O)NCC(=O)N[C@@H](C)C(=O)N[C@H](C(=O)N[C@@H](CC(C)C)C(=O)N[C@@H](CCCCN)C(=O)N[C@H](C(=O)N[C@@H](CC(C)C)C(=O)N[C@H](C(=O)N[C@H](C(=O)NCC(=O)N[C@@H](CC(C)C)C(=O)N1CCC[C@H]1C(=O)N[C@@H](C)C(=O)N[C@@H](CC(C)C)C(=O)N[C@H](C(=O)N[C@@H](CO)C(=O)N[C@@H](Cc1c[nH]c2ccccc12)C(=O)N[C@H](C(=O)N[C@@H](CCCCN)C(=O)N[C@@H](CCCNC(=N)N)C(=O)N[C@@H](CCCCN)C(=O)N[C@@H](CCCNC(=N)N)C(=O)N[C@@H](CCC(N)=O)C(=O)N[C@@H](CCC(N)=O)C(N)=O)[C@@H](C)CC)[C@@H](C)CC)[C@@H](C)O)[C@@H](C)O)C(C)C)C(C)C [melittin, Melittin] was run?
A: significantly increased in M2 macrophages
